Reference: patent US10004701B2, “Methods and compositions for treating infection” (UNIVERSITY OF ROCHESTER, priority 2012, dated 2018)
Counter-ions that a name gives are not always drawn. Like-named read-outs stand apart in the source and are kept apart here.

Columns and labels:
Assay in all cases: AK assay 384-well format, Prestwick library screening
[1] = test system: A. baumannii strain 98-37-09; type: cell-based, Acinetobacter baumannii; conditions: for fold induction at 50 µM: Acinetobacter baumannii, 983709, 3 h
[2] = test system: S. aureus strain USA300-0114; type: cell-based, Staphylococcus aureus; conditions: for fold induction at 50 µM: Staphylococcus aureus, USA300, 3 h
P. aeruginosa = type: cell-based, Pseudomonas aeruginosa; conditions: for fold induction at 50 µM: Pseudomonas aeruginosa, 3 h
K. pneumoniae = type: cell-based, Klebsiella pneumoniae; conditions: for fold induction at 50 µM: Klebsiella pneumoniae, 3 h
E. faecium = type: cell-based, Enterococcus faecium; conditions: for fold induction at 50 µM: Enterococcus faecium, 3 h
E. cloacae = type: cell-based, Enterobacter cloacae; conditions: for fold induction at 50 µM: Enterobacter cloacae, 3 h
E. coli = type: cell-based, Escherichia coli; conditions: for fold induction at 50 µM: Escherichia coli, 3 h
[3] = 50 μM final drug concentration, planktonic, cutoff for positive 3-fold increase, read-out: AK-based Prestwick Library Screening Results, A. baumannii (fold increase in extracellular AK activity)
[4] = 50 μM final drug concentration, planktonic, cutoff for positive 3-fold increase, read-out: AK-based Prestwick Library Screening Results, S. aureus (fold increase in extracellular AK activity)
[5] = 50 μM final drug concentration, planktonic, cutoff for positive 3-fold increase, read-out: AK-based Prestwick Library Screening Results, P. aeruginosa (fold increase in extracellular AK activity)
[6] = 50 μM final drug concentration, planktonic, cutoff for positive 3-fold increase, read-out: AK-based Prestwick Library Screening Results, K. pneumoniae (fold increase in extracellular AK activity)
[7] = 50 μM final drug concentration, planktonic, cutoff for positive 3-fold increase, read-out: AK-based Prestwick Library Screening Results, E. faecium (fold increase in extracellular AK activity)
[8] = 50 μM final drug concentration, planktonic, cutoff for positive 3-fold increase, read-out: AK-based Prestwick Library Screening Results, E. cloacae (fold increase in extracellular AK activity)
[9] = 50 μM final drug concentration, planktonic, cutoff for positive 3-fold increase, read-out: AK-based Prestwick Library Screening Results, E. coli (fold increase in extracellular AK activity)
[10] = planktonic A. baumannii, 50 μM final drug concentration, 384-well, cutoff for positive-scoring molecules 3-fold increase, read-out: AK-based Prestwick Library Screening Results: A. baumannii (increase in extracellular AK activity)
[11] = planktonic S. aureus, 50 μM final drug concentration, 384-well, cutoff for positive-scoring molecules 3-fold increase, read-out: AK-based Prestwick Library Screening Results: S. aureus (increase in extracellular AK activity)
[12] = planktonic P. aeruginosa, 50 μM final drug concentration, 384-well, cutoff for positive-scoring molecules 3-fold increase, read-out: AK-based Prestwick Library Screening Results: P. aeruginosa (increase in extracellular AK activity)
[13] = planktonic K. pneumoniae, 50 μM final drug concentration, 384-well, cutoff for positive-scoring molecules 3-fold increase, read-out: AK-based Prestwick Library Screening Results: K. pneumoniae (increase in extracellular AK activity)
[14] = planktonic E. faecium, 50 μM final drug concentration, 384-well, cutoff for positive-scoring molecules 3-fold increase, read-out: AK-based Prestwick Library Screening Results: E. faecium (increase in extracellular AK activity)
[15] = planktonic E. cloacae, 50 μM final drug concentration, 384-well, cutoff for positive-scoring molecules 3-fold increase, read-out: AK-based Prestwick Library Screening Results: E. cloacae (increase in extracellular AK activity)
[16] = planktonic E. coli, 50 μM final drug concentration, 384-well, cutoff for positive-scoring molecules 3-fold increase, read-out: AK-based Prestwick Library Screening Results: E. coli (increase in extracellular AK activity)
[17] = 50 μM final drug concentration, planktonic, […]

Work on `CNCCC(Oc1ccc(C(F)(F)F)cc1)c1ccccc1` (stereo not shown) [Fluoxetine hydrochloride] yielded a fold induction at 50 µM ([1]; planktonic A. baumannii, 50 μM final drug concentration, cutoff for positive-scoring molecules 3-fold increase, read-out: AK-based Prestwick Library Screening Results, A. baumannii (increase in extracellular AK activity)) of 1, a fold induction at 50 µM ([2]; planktonic S. aureus, 50 μM final drug concentration, cutoff for positive-scoring molecules 3-fold increase, read-out: AK-based Prestwick Library Screening Results, S. aureus (increase in extracellular AK activity)) of 1.1 and a fold induction at 50 µM (P. aeruginosa; planktonic P. aeruginosa, 50 μM final drug concentration, cutoff for positive-scoring molecules 3-fold increase, read-out: AK-based Prestwick Library Screening Results, P. aeruginosa (increase in extracellular AK activity)) of 0.9. It also gave a fold induction at 50 µM (K. pneumoniae; planktonic K. pneumoniae, 50 μM final drug concentration, cutoff for positive-scoring molecules 3-fold increase, read-out: AK-based Prestwick Library Screening Results, K. pneumoniae (increase in extracellular AK activity)) of 0.8, a fold induction at 50 µM (E. faecium; planktonic E. faecium, 50 μM final drug concentration, cutoff for positive-scoring molecules 3-fold increase, read-out: AK-based Prestwick Library Screening Results, E. faecium (increase in extracellular AK activity)) of 0.9 and a fold induction at 50 µM (E. cloacae; planktonic E. cloacae, 50 μM final drug concentration, cutoff for positive-scoring molecules 3-fold increase, read-out: AK-based Prestwick Library Screening Results, E. cloacae (increase in extracellular AK activity)) of 1.1. The fold induction at 50 µM (E. coli; planktonic E. coli, 50 μM final drug concentration, cutoff for positive-scoring molecules 3-fold increase, read-out: AK-based Prestwick Library Screening Results, E. coli (increase in extracellular AK activity)) was 1.
`CN1CCN(CCCN2c3ccccc3Sc3ccc(Cl)cc32)CC1` [Prochlorperazine dimaleate] showed a fold induction at 50 µM [1, 3] of 1.6, a fold induction at 50 µM [2, 4] of 1.1 and a fold induction at 50 µM (P. aeruginosa; [5]) of 1.2. It also gave a fold induction at 50 µM (K. pneumoniae; [6]) of 1.2, a fold induction at 50 µM (E. faecium; [7]) of 1.1 and a fold induction at 50 µM (E. cloacae; [8]) of 2. It also gave a fold induction at 50 µM (E. coli; [9]) of 1.2.
`C[C@@H]1CC[C@@]2(NC1)O[C@H]1C[C@H]3[C@@H]4CC=C5C[C@@H](O)CC[C@]5(C)[C@H]4CC[C@]3(C)[C@H]1[C@@H]2C` [Solasodine] was tested, and the fold induction at 50 µM ([1]; 50 μM final drug concentration, planktonic, […], read-out: AK-based Prestwick Library Screening Results, A. baumannii (fold increase in extracellular AK activity)) was 0.7, the fold induction at 50 µM ([2]; 50 μM final drug concentration, planktonic, […], read-out: AK-based Prestwick Library Screening Results, S. aureus (fold increase in extracellular AK activity)) was 0.6 and the fold induction at 50 µM (P. aeruginosa; 50 μM final drug concentration, planktonic, […], read-out: AK-based Prestwick Library Screening Results, P. aeruginosa (fold increase in extracellular AK activity)) was 1. The fold induction at 50 µM (K. pneumoniae; 50 μM final drug concentration, planktonic, […], read-out: AK-based Prestwick Library Screening Results, K. pneumoniae (fold increase in extracellular AK activity)) was 0.7, the fold induction at 50 µM (E. faecium; 50 μM final drug concentration, planktonic, […], read-out: AK-based Prestwick Library Screening Results, E. faecium (fold increase in extracellular AK activity)) was 0.9 and the fold induction at 50 µM (E. cloacae; 50 μM final drug concentration, planktonic, […], read-out: AK-based Prestwick Library Screening Results, E. cloacae (fold increase in extracellular AK activity)) was 0.9. The fold induction at 50 µM (E. coli; 50 μM final drug concentration, planktonic, […], read-out: AK-based Prestwick Library Screening Results, E. coli (fold increase in extracellular AK activity)) was 1.
`Cc1ccc(C)c(OCCCC(C)(C)C(=O)O)c1` [Gemfibrozil] showed a fold induction at 50 µM [1, 10] of 1.3, a fold induction at 50 µM [2, 11] of 0.9 and a fold induction at 50 µM (P. aeruginosa; [12]) of 1.2. For the same compound, the fold induction at 50 µM (K. pneumoniae; [13]) was 0.9, the fold induction at 50 µM (E. faecium; [14]) was 1 and the fold induction at 50 µM (E. cloacae; [15]) was 1.5. The fold induction at 50 µM (E. coli; [16]) was 1.3.
`CO[C@@H]1[C@@H](O[C@@H]2O[C@H](C)[C@@H](O[C@H]3C[C@@](C)(O)[C@@H](OC(=O)CC(C)C)[C@H](C)O3)[C@H](N(C)C)[C@H]2O)[C@@H](CC=O)C[C@@H](C)[C@@H](O)/C=C/C=C/C[C@@H](C)OC(=O)C[C@H]1OC(C)=O` [Josamycin] showed a fold induction at 50 µM [1, 10] of 1.1, a fold induction at 50 µM [2, 11] of 8.4 and a fold induction at 50 µM (P. aeruginosa; [12]) of 0.9. It also gave a fold induction at 50 µM (K. pneumoniae; [13]) of 1, a fold induction at 50 µM (E. faecium; [14]) of 1 and a fold induction at 50 µM (E. cloacae; [15]) of 1.4. For the same compound, the fold induction at 50 µM (E. coli; [16]) was 1.3.
`C[N+]1(C)CCOC(O)(c2ccc(-c3ccc(C4(O)C[N+](C)(C)CCO4)cc3)cc2)C1.[Br-].[Br-]` (stereo not shown) [Hemicholinium bromide] was tested, and the “AK-based Prestwick Library Screening Results, A. baumannii (fold increase in extracellular AK activity)” value [1, 17] was 1.2, the “AK-based Prestwick Library Screening Results, S. aureus (fold increase in extracellular AK activity)” value [2, 17] was 1.0 and the “AK-based Prestwick Library Screening Results, P. aeruginosa (fold increase in extracellular AK activity)” value (P. aeruginosa; [17]) was 0.9. For the same compound, the “AK-based Prestwick Library Screening Results, K. pneumoniae (fold increase in extracellular AK activity)” value (K. pneumoniae; [17]) was 1.0, the “AK-based Prestwick Library Screening Results, E. faecium (fold increase in extracellular AK activity)” value (E. faecium; [17]) was 0.9 and the “AK-based Prestwick Library Screening Results, E. cloacae (fold increase in extracellular AK activity)” value (E. cloacae; [17]) was 2.0. For the same compound, the “AK-based Prestwick Library Screening Results, E. coli (fold increase in extracellular AK activity)” value (E. coli; [17]) was 1.1.
For `CC1(C)O[C@@H]2C[C@H]3[C@@H]4C[C@H](F)C5=CC(=O)CC[C@]5(C)[C@H]4[C@@H](O)C[C@]3(C)[C@]2(C(=O)CO)O1` [Flurandrenolide], the fold induction at 50 µM [1, 3] was 0.5, the fold induction at 50 µM [2, 4] was 0.4 and the fold induction at 50 µM (P. aeruginosa; [5]) was 0.4. The fold induction at 50 µM (K. pneumoniae; [6]) was 0.5, the fold induction at 50 µM (E. faecium; [7]) was 0.8 and the fold induction at 50 µM (E. cloacae; [8]) was 0.3. The fold induction at 50 µM (E. coli; [9]) was 0.5.
For `C[C@]12CC[C@@H](O)C[C@@H]1CC[C@@H]1[C@@H]2CC[C@]2(C)C(=O)CC[C@@H]12` [Androsterone], the fold induction at 50 µM ([1]; read-out: AK-based Prestwick Library Screening Results, A. baumannii (increase in extracellular AK activity)) was 0.7, the fold induction at 50 µM ([2]; read-out: AK-based Prestwick Library Screening Results, S. aureus (increase in extracellular AK activity)) was 0.5 and the fold induction at 50 µM (P. aeruginosa; read-out: AK-based Prestwick Library Screening Results, P. aeruginosa (increase in extracellular AK activity)) was 0.6. The fold induction at 50 µM (K. pneumoniae; read-out: AK-based Prestwick Library Screening Results, K. pneumoniae (increase in extracellular AK activity)) was 0.5, the fold induction at 50 µM (E. faecium; read-out: AK-based Prestwick Library Screening Results, E. faecium (increase in extracellular AK activity)) was 1 and the fold induction at 50 µM (E. cloacae; read-out: AK-based Prestwick Library Screening Results, E. cloacae (increase in extracellular AK activity)) was 0.7. It also gave a fold induction at 50 µM (E. coli; read-out: AK-based Prestwick Library Screening Results, E. coli (increase in extracellular AK activity)) of 0.6.
`C[C@H](CCC(=O)O)[C@H]1CC[C@H]2[C@@H]3[C@H](O)C[C@@H]4C[C@H](O)CC[C@]4(C)[C@H]3CC[C@]12C` [Chenodiol] was tested, and the fold induction at 50 µM [1, 10] was 1, the fold induction at 50 µM [2, 11] was 1.7 and the fold induction at 50 µM (P. aeruginosa; [12]) was 1.2. The fold induction at 50 µM (K. pneumoniae; [13]) was 0.8, the fold induction at 50 µM (E. faecium; [14]) was 1 and the fold induction at 50 µM (E. cloacae; [15]) was 1.5. It also gave a fold induction at 50 µM (E. coli; [16]) of 1.2.
`CCN(CC)CCNC(=O)c1cc(S(C)(=O)=O)ccc1OC` [Tiapride hydrochloride] showed a fold induction at 50 µM [1, 10] of 1.1, a fold induction at 50 µM [2, 11] of 1 and a fold induction at 50 µM (P. aeruginosa; [12]) of 1.2. The fold induction at 50 µM (K. pneumoniae; [13]) was 0.9, the fold induction at 50 µM (E. faecium; [14]) was 1.1 and the fold induction at 50 µM (E. cloacae; [15]) was 1.5. It also gave a fold induction at 50 µM (E. coli; [16]) of 1.4.
